Values quoted from earlier work as cited in patent US11459613B2, “Methods of characterizing resistance to modulators of Cereblon” (THE BRIGHAM AND WOMEN'S HOSPITAL, INC., priority 2015, dated 2022).

Conditions: lenalidomide in combination with dexamethasone, front-line therapy, standard-risk multiple myeloma

SMILES: Nc1cccc2c1CN(C1CCC(=O)NC1=O)C2=O (stereo not shown) [lenalidomide]
- disease progression develops after initiating treatment (on average): 11 months
